Measurements published in patent US11319306B2, “Compositions and methods for treating neurodegenerative diseases” (Azevan Pharmaceuticals, Inc., priority 2014, dated 2022).
Read-outs that look alike come from different tables or passages of the source.

Assays:
[1] = molecular target: T1, human V1a receptor (Homo sapiens, UniProt P37288); experiment: Inhibition of phosphatidylinositol turnover (V1a); assay type: cell-based; details: inhibition of vasopressin-mediated phosphatidylinositol turnover
T1 construct: host or cells: CHO cells (hV1a cell line)
T1 sequence (P37288 whole entry): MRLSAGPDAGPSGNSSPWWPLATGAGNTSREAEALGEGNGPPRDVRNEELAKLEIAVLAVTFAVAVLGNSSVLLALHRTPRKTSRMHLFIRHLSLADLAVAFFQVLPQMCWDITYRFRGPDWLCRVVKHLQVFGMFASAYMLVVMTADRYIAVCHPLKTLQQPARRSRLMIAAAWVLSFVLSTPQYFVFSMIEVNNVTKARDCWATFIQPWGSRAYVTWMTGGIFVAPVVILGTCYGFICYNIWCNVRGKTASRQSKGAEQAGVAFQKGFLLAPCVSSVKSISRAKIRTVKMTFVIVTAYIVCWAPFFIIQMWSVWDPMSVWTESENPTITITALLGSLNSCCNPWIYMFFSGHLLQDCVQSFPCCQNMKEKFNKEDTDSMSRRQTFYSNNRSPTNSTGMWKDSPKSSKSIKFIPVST
Excerpt: The physiological effects of vasopressin are mediated through specific G-protein coupled receptors. The vasopressin V1a receptor is coupled to the Gq/G11 family of G proteins and mediates phosphatidylinositol turnover. The agonist or antagonist character of the compounds of the invention may be determined by their ability to inhibit vasopressin-mediated turnover of phosphatidylinositol by the procedure described in the following paragraphs.
Cell culture and labeling of cells.
All assays were in triplicate except for basal and 10 nM AVP (both n=6). AVP ((arginine vasopressin), Peninsula Labs, Belmont, Calif., USA (#8103)) was dissolved in 0.1N acetic acid. Test agents were dissolved in DMSO and diluted in DMSO to 200 times the final test concentration. […] The order of incubations was randomized. Incubations were initiated by removing the prelabeling medium, washing the monolayer once with 1 mL of 0.9% NaCl, and transferring the contents of the assay tubes to corresponding wells. The plates were incubated for 1 hour at 37° C. Incubations were terminated by removing the incubation medium and adding 500 μL of ice cold 5% (w/v) trichloroacetic acid and allowing the wells to stand for 15 min.
BioRad Poly-Prep Econo-Columns were packed with 0.3 mL of AG 1 X-8 100-200 formate form resin. Resin was mixed 1:1 with water and 0.6 mL added to each column. Columns were then washed with 10 mL water. Scintillation vials (20 mL) were placed under each column. For each well, the contents were transferred to a minicolumn, after which the well was washed with 0.5 mL distilled water, which was also added to the minicolumn. The columns were then washed twice with 5 mL of 5 mM myo-inositol to elute free inositol. Aliquots (1 mL) were transferred to 20 mL scintillation vials and 10 mL of Beckman Ready Protein Plus added. After the myo-inositol wash was complete, empty scintillation vials were placed under the columns, and [^3H]inositol phosphates were eluted with three additions of 1 mL 0.5 M ammonium formate containing 0.1 N formic acid. Elution conditions were optimized to recover inositol mono-, bis-, and trisphosphates, without eluting the more metabolically inert tetrakis-, pentakis-, and hexakis-phosphates. To each sample was added 10 mL of a high salt capacity scintillation fluid such as Tru-Count High Salt Capacity or Packard Hionic-Fluor. Inositol lipids were measured by adding 1 mL of 2% sodium dodecyl sulfate (SDS) to each well, allowing the wells to stand for at least 30 min., and transferring the solution to 20 mL scintillation vials, to which 10 mL Beckman Ready Protein Plus scintillation fluid was then added. Samples were counted in a Beckman LS 3801 liquid scintillation counter for 10 min. Total inositol incorporation for each well was calculated as the sum of free inositol, inositol phosphates, and inositol lipids.
Concentration-response curves for AVP and concentration-inhibition curves for test agents versus 10 nM AVP were analyzed by nonlinear least-squares curve-fitting to a 4-parameter logistic function. Parameters for basal and maximal inositol phosphates, EC50 or IC50, and Hill coefficient were varied to achieve the best fit. The curve-fitting was weighted under the assumption that the standard deviation was proportional to dpm of radioactivity.

[2] = molecular target: T1, human V1a receptor; experiment: Human vasopressin V1a receptor binding assay (3H-AVP competition, hV1a CHO cells); details: for IC50: read-out: V1a Binding Affinity IC50
Protocol: Human vasopression V1a receptor binding assay. A cell line expressing the human V1a receptor in CHO cells (henceforth referred to as the hV1a cell line) was obtained from Dr. Michael Brownstein, NIMH, Bethesda, Md., USA. The hV1a cDNA sequence is described by Thibonnier et al., Journal of Biological Chemistry, 269, 3304-3310 (1994), and the expression method was the same as described by Morel et al. (1992). The hV1a cell line was grown in alpha-MEM with 10% fetal bovine serum and 250 ug/ml G418 (Gibco, Grand Island, N.Y., USA). For competitive binding assay, hV1a cells were plated into 6-well culture plate at 1:10 dilution from a confluency flask, and maintained in culture for at least two days. Culture medium was then removed, cells were washed with 2 ml binding buffer (25 mM Hepes, 0.25% BSA, 1×DMEM, PH=7.0). To each well, 990 μl binding buffer containing InM 3H-AVP was added, and followed by 10 μl series diluted Example compounds dissolved in DMSO. […] 100 nM cold AVP (Sigma) was used to assess non-specific binding. Cells were incubated for 45 minutes at 37° C., assay mixture was removed and each well was washed three times with PBS (pH=7.4). 1 ml 2% SDS was added per well and plates were let sit for 30 minutes. The whole content in a well was transferred to a scintillation vial. Each well was rinsed with 0.5 ml PBS which was then added to the corresponding vial. Scintillation fluid (Ecoscint, National Diagnostics, Atlanta, Ga.) was then added at 3 ml per vial. Samples were counted in a liquid scintillation counter (Beckman LS3801). IC50 values were calculated by Prism Curve fitting software.
All of the alkanedioic esters and amides exemplified in the foregoing examples dissolved in DMSO were tested in this assay. Binding curves were generated according to methods described by Thibonnier et al. (1994). [^3H]-AVP was added to the hV1a cell cultures followed by 10-fold dilutions of each test compound.

[3] = tested on: awake rats; experiment: Resident-intruder model of stress and aggression in rats, awake fMRI neuroimaging; assay type: in vivo, rat
Excerpt: Resident-intruder model of stress and aggression in rats. Neuroimaging is used to assess the blockade of stress/arousal with test compound compared to control. The effect of AVN251-HCl on functional circuitry was examined using the imaging method for awake rats. Additional details of the assay are described in Ferris et al. Imaging the neural circuitry and chemical control of aggressive motivation.
Male rats in the company of a female cage mate piloerect in the presence of a male intruder. Piloerection is a sign of stress and aggressive intent and is associated with activation of stress/arousal circuits in the brain. Stress circuit activation in response to an intruder male is assessed by obtaining brain scans viewed from a caudal/dorsal perspective as translucent shells. The localization of activated voxels is mapped as 3D volumes of activation, which are composed of 10 subjects each. Once fully registered and segmented, the statistical responses for each subject are averaged on a voxel-by-voxel basis. Those averaged voxels exceeding a 2.0% threshold are shown in their appropriate spatial location. Functional images are acquired on awake rats at 4.7 T.
Resident male rats from six male/female pairs are imaged while fully awake, and presented with their mate, or their mate+an intruder, a highly stressful stimulus. […] The total volume of brain activation for resident males confronted with their mate alone, mate plus intruder, and mate plus intruder in the presence of AVN251-HCl are viewed as 3D models.
Awake rats are imaged when presented with their mate, or their mate+an intruder. […] In each scan, the dark shaded areas represent activation of vasopressin receptor signaling.

[4] = tested on: Adult male Long Evans rats; experiment: Light/dark shuttle box; assay type: in vivo, rat
Protocol: Anxiolytic Effect in the Light/Dark Shuttle Box. The light/dark shuttle box is a standard and well characterized assay for anxiolytic effects of a test compound. Rats naturally avoid the light side of the box because it is stressful. Increased time on the light side by the treatment group compared to control reflects an anxiolytic effect (Bourin and Hascoet, 2003). Adult male Long Evans rats are administered AVN251 (0.1-2 mg/kg) by oral gavage 90 min prior to testing in a light/dark shuttle box.

[5] = 3H-AVP competition, CHO cells expressing human V1a
[6] = 3H-AVP competition, CHO cells expressing human V1a, read-out: V1a Ki

Row | Compound | agonist or antagonist character [1] | IC50 [2, 5] [nM] | Ki [2, 6] [nM] | further results
1 | O=C(NCc1cccc(C(F)(F)F)c1)[C@H](CCC(=O)N1CCN(CCc2ccccc2)CC1)N1C(=O)[C@@H](N2C(=O)OC[C@@H]2c2ccccc2)[C@H]1C=Cc1ccccc1 (single isomer, unassigned) [Example 35] | vasopressin V1a antagonists | – | – | –
2 | O=C(NCc1cccc(C(F)(F)F)c1)C(CCC(=O)N1CCC(N2CCCCC2)CC1)N1C(=O)C(N2C(=O)OCC2c2ccccc2)C1C=Cc1ccccc1 (single isomer, unassigned) [Example 88] | vasopressin V1a antagonists | 2.4 | 1.45 | –
3 | O=C(NCc1cccc(C(F)(F)F)c1)C(CCC(=O)N1CCN(C2CCCCC2)CC1)N1C(=O)C(N2C(=O)OCC2c2ccccc2)C1C=Cc1ccccc1 (single isomer, unassigned) [Example 110] | vasopressin V1a antagonists | – | – | –
4 | O=C(NCc1cccc(C(F)(F)F)c1)C(CC(=O)N1CCC(N2CCCCC2)CC1)N1C(=O)C(N2C(=O)OCC2c2ccccc2)C1C=Cc1ccccc1 (stereo not shown) [Example 44] | vasopressin V1a antagonists | 3.1 | 1.89 | –
5 | O=C(NCc1cccc(C(F)(F)F)c1)C(CC(=O)N1CCC(N2CCCCC2)CC1)N1C(=O)C(N2C(=O)OCC2c2ccccc2)C1C=Cc1ccccc1 (stereo not shown) [Example 133] | vasopressin V1a antagonists | 2.43 | 1.49 | –
6 | CN(Cc1cccc(C(F)(F)F)c1)C(=O)[C@@H](CC(=O)N1CCC(N2CCCCC2)CC1)N1C(=O)[C@@H](N2C(=O)OC[C@@H]2c2ccccc2)[C@H]1/C=C/c1ccccc1 [Example 225, 2(R)-[[4-(Piperidinyl)piperidinyl]carbonylmethyl]-2-[3(S)-(4(S)-phenyloxazolidin-2-on-3-yl)-4(R)-(2-styryl)azetidin-2-on-1-yl]acetic acid N-methyl-N-(3-trifluoromethylbenzyl)amide] | – | – | 0.66 | Ki ([2]; receptor selectivity table, read-out: inhibition data Ki, V1a): 0.66 nM; activation of vasopressin receptor signaling in brain scans (FIG. 4 vs FIG. 3) ([3]; amygdala, cortex, hippocampus, thalamus, mate+intruder): lower activation of vasopressin receptor signaling than the untreated controls; stress/arousal response in amygdala, cortex, hippocampus and thalamus ([3]; pretreatment 5 mg/kg 90 minutes before test session, mate + intruder, listed as AVN251): blocked the stress/arousal response; anxiety compared to vehicle ([4]; 0.1-2 mg/kg oral gavage 90 min prior to testing): dose dependent decrease in anxiety; light-dark entries (FIG. 6C) ([4]; 1 or 2 mg/kg): more light-dark entries; time in the dark (FIG. 6B) ([4]; 1 or 2 mg/kg, p<0.01): less time in the dark; time in the light (FIG. 6A) ([4]; 1 or 2 mg/kg, p<0.01): more time in the light
7 | O=C(N[C@@H]1CCCc2ccccc21)[C@H](CCC(=O)N1CCN(C2CCCCC2)CC1)N1C(=O)[C@@H](N2C(=O)OC[C@@H]2c2ccccc2)[C@H]1/C=C/c1ccccc1Cl [Example 250] | – | 6.5 | 4 | –
8 | O=C(N[C@@H]1CCCc2ccccc21)[C@H](CCC(=O)N1CCN(C2CCCCC2)CC1)N1C(=O)[C@@H](N2C(=O)OC[C@@H]2c2cccc(Cl)c2)[C@H]1/C=C/c1cccc(Cl)c1 [Example 251] | – | 0.5 | 0.3 | –
9 | O=C(N[C@@H]1CCCc2ccccc21)[C@H](CCC(=O)N1CCN(C2CCCCC2)CC1)N1C(=O)[C@@H](N2C(=O)OC[C@@H]2c2ccccc2)[C@H]1/C=C/c1cc(Cl)cc(Cl)c1 [Example 252] | – | 1.8 | 1.1 | –
10 | CC(NC(=O)C(CC(=O)N1CCC(N2CCCCC2)CC1)N1C(=O)C(N2C(=O)OCC2c2ccccc2)C1C=Cc1cccc(Cl)c1)c1ccccc1 (stereo not shown) [Example 559] | – | 0.12 | 0.073 | –
11 | CC(NC(=O)C(CC(=O)N1CCC(CN2CCCCC2)CC1)N1C(=O)C(N2C(=O)OCC2c2ccccc2)C1C=Cc1ccccc1)c1ccccc1 (stereo not shown) [Example 601] | – | 1 | 0.62 | –
12 | CC(NC(=O)C(CC(=O)N1CCC(N2CCCCC2)CC1)N1C(=O)C(N2C(=O)OCC2c2ccccc2)C1C=Cc1cccc(Br)c1)c1ccccc1 (stereo not shown) [Example 606] | – | 0.53 | 0.32 | –
13 | CC(NC(=O)C(CC(=O)N1CCC([N+]2([O-])CCCCC2)CC1)N1C(=O)C(N2C(=O)OCC2c2ccccc2)C1C=Cc1ccccc1)c1ccccc1 (stereo not shown) [Example 672] | – | – | 1.1 | –
14 | O=C(NCc1ccccc1F)C(CC(=O)N1CCC(N2CCCCC2)CC1)N1C(=O)C(N2C(=O)OCC2c2ccccc2)C1C=Cc1ccccc1 (stereo not shown) [Example 677] | – | – | 3 | –
15 | CNCCC(Oc1ccc(C(F)(F)F)cc1)c1ccccc1 (stereo not shown) [fluoxetine, reference compound] | – | – | – | sexual motivation / mesocorticolimbic dopamine reward system activation ([3]; presentation of novel receptive female): markedly diminishes activation of this circuit; stress circuit activation (BOLD), mate plus intruder ([3]; resident male rats, 5 mg/kg oral gavage): decreased activation of both the stress circuits and the mesocorticolimbic dopamine reward system
16 | (2S)-[(4-cyclohexylpiperazinyl)carbonylethyl]-2-[3(S)-(4(S)-phenyloxazolidin-2-on-3-yl)-4(R)-(2-phenyleth-1-yl)azetidin-2-on-1-yl]acetic acid N—[(R)-1,2,3,4-tetrahydronaphth-1-yl]amide [Example 236A] | – | 9 | 5.5 | –
